From patent publication US8377636B2, “Biological markers predictive of anti-cancer response to kinase inhibitors” (OSI Pharmaceuticals, LLC, priority 2007, dated 2013)

How the values were obtained:
[1] = test system: ERK MAP kinase and AKT pathways in H1703 cells; test: Intracellular signaling, immunoblot of pERK and pAKT; type: cell-based, human; design: AKT pathway inhibition: dose or concentration left out as unconfirmed
Method: (§1) FIG. 3: Inhibition of PDGFR activity in NSCLC. A. H1703 cells were treated with increasing concentrations of PDGFR inhibitor 1 (OSI-930) (▪), PDGFR inhibitor 2 (▴) or an EGFR inhibitor (erlotinib) (▾). After 72 hours incubation proliferation of the cells was measured by CellTitreGlo assay and plotted as a % proliferation relative to untreated cells. B. H1703 cells were treated with the PDGFR inhibitor OSI-930 for 2 hours and then left untreated or treated with PDGF (10 ng/ml) for 15 mins. Protein extracts were prepared and immunoblots probed with the indicated antibodies C. H1703 and Calu1 cells were treated with either 1 or 5 μM of PDGFR inhibitor OSI-930 and the effect on closure of the wound analysed after 24 hrs.
(§2) FIG. 7: Inhibition of FGFR Signaling in H1703 and H226 NSCLC Cells. H1703 and H226 cells were treated with either […] PD173074 for 2 hours and then left untreated (CON) or treated with 10 ng/ml FGF for 15 min (FGF). Cell lysates were prepared and immunoblots using antibodies against pERK, total ERK, pAKT (ser473), total AKT and β-actin were performed.
(§3) The human NSCLC lines H1299, H266, H522, H650, H1437, H1155, Calu1, Hop92, H23, H292, H358, H322, H441, A549, Calu6, H460, H1703 and SW1573 were cultured in the appropriate ATCC recommended supplemented media. Cell extracts were prepared by detergent lysis (50 mM Tris-HCl, pH8, 150 mM NaCl, 1% NP-40, 0.5% NaDeoxycholate, 0.1% SDS) containing protease and phosphatase inhibitors. The soluble protein concentration was determined by micro-BSA assay (Pierce, Rockford Ill.). In experiments monitoring serum stimulation, cells were grown in media with 0.5% FBS for 24 hours followed by addition of FBS to a final concentration of 10% for 10 minutes prior to lysis. In experiments where inhibitor treatment was required, inhibitor was added at the indicated concentration and the cells the stimulated with the indicated ligand. For cell proliferation assays cells were plated, inhibitor added and proliferation measured after 72 hours using the CELLTITERGLO™ cell viability assay (Promega, Madison Wis.). […]

H358 cells = test: Cell proliferation, CellTitreGlo assay; type: cell-based, human
Method: (§4) The human NSCLC lines H1299, H266, H522, H650, H1437, H1155, Calu1, Hop92, H23, H292, H358, H322, H441, A549, Calu6, H460, H1703 and SW1573 were cultured in the appropriate ATCC recommended supplemented media. Cell extracts were prepared by detergent lysis (50 mM Tris-HCl, pH8, 150 mM NaCl, 1% NP-40, 0.5% NaDeoxycholate, 0.1% SDS) containing protease and phosphatase inhibitors. The soluble protein concentration was determined by micro-BSA assay (Pierce, Rockford Ill.). In experiments monitoring serum stimulation, cells were grown in media with 0.5% FBS for 24 hours followed by addition of FBS to a final concentration of 10% for 10 minutes prior to lysis. In experiments where inhibitor treatment was required, inhibitor was added at the indicated concentration and the cells the stimulated with the indicated ligand. For cell proliferation assays cells were plated, inhibitor added and proliferation measured after 72 hours using the CELLTITERGLO™ cell viability assay (Promega, Madison Wis.).

H1703 cells [2] = test: Cell proliferation, CellTitreGlo assay; type: cell-based, human
Method: as §1
(§5) FIG. 6: Inhibition of FGFR activity in NSCLC. A. H1703 (▪), Calu1 (▴) and H226 (▾) cells were treated with increasing concentrations of FGFR inhibitor (PD173074). After 72 hours incubation proliferation of the cells was measured by CellTitreGlo assay and plotted as a % proliferation relative to untreated cells.
as §4

Calu1 cells [3] = test: Cell motility, closure of the wound; type: cell-based, human; settings: 1 or 5 μM, 24 hrs
Method: as §1

H1703 cells [4] = test: Cell motility, closure of the wound; type: cell-based, human; settings: 1 or 5 μM, 24 hrs
Method: as §1

[5] = test system: ERK MAP kinase and AKT pathways in H226 cells; test: Intracellular signaling, immunoblot of pERK and pAKT; type: cell-based, human
Method: as §2, §3

H226 cells = test: Cell proliferation, CellTitreGlo assay; type: cell-based, human
Method: as §5, §4

Calu1 cells [6] = test: Cell proliferation, CellTitreGlo assay; type: cell-based, human
Method: as §5, §4

H441 NSCLC cell line = test: Sensitivity of tumor cells to EGFR kinase inhibitor; type: cell-based, human; settings: phenotype Epithelial
Method: as §4

CALU6 NSCLC cell line = test: as above; type: cell-based, human; settings: phenotype Mesenchymal-like
Method: as §4

H322 NSCLC cell line = test: as above; type: cell-based, human; settings: phenotype Epithelial
Method: as §4

H23 NSCLC cell line = test: as above; type: cell-based, human; settings: phenotype Mesenchymal-like
Method: as §4

A549 NSCLC cell line = test: as above; type: cell-based, human; settings: phenotype Mixed
Method: as §4

H1299 NSCLC cell line = test: as above; type: cell-based, human; settings: phenotype Mesenchymal-like
Method: as §4

H522 NSCLC cell line = test: as above; type: cell-based, human; settings: phenotype Mesenchymal-like
Method: as §4

H1437 NSCLC cell line = test: as above; type: cell-based, human; settings: phenotype Epithelial
Method: as §4

H1703 NSCLC cell line = test: as above; type: cell-based, human; settings: phenotype Mesenchymal-like
Method: as §4

H358 NSCLC cell line = test: as above; type: cell-based, human; settings: phenotype Epithelial
Method: as §4

H292 NSCLC cell line = test: as above; type: cell-based, human; settings: phenotype Epithelial
Method: as §4

HOP92 NSCLC cell line = test: as above; type: cell-based, human; settings: phenotype Mesenchymal-like
Method: as §4

CALU1 NSCLC cell line = test: as above; type: cell-based, human; settings: phenotype Mesenchymal-like
Method: as §4

H460 NSCLC cell line = test: as above; type: cell-based, human; settings: phenotype Mesenchymal-like
Method: as §4

H226 NSCLC cell line = test: as above; type: cell-based, human; settings: phenotype Mesenchymal-like
Method: as §4

H1155 NSCLC cell line = test: as above; type: cell-based, human; settings: phenotype Mesenchymal-like
Method: as §4

H650 NSCLC cell line = test: as above; type: cell-based, human; settings: phenotype Mesenchymal-like
Method: as §4

SW1573 NSCLC cell line = test: as above; type: cell-based, human; settings: phenotype Mesenchymal-like
Method: as §4

Calu6 NSCLC xenograft = test: Xenograft tumor growth inhibition; type: in vivo, CD-1 nu/nu mice; settings: Calu6 xenograft in mice; 100 mg/kg once a day for 14 days, oral gavage
Method: (§6) FIG. 9: Sensitivity of NSCLC cell lines to erlotinib In Vivo. Female CD-1 nu/nu mice were implanted with H292 or Calu6 cells and tumor allowed to grow to 200 mm^3. Animals were then either left untreated or treated with 100 mg/kg erlotinib once a day for 14 days. Tumor volume was measured twice weekly.
(§7) Female CD-1 nu/nu mice (Charles River Laboratories, Wilmington, Mass.) were implanted with harvested NSCLC tumor cells in a single subcutaneous site on the flank of the mice in the axillary region. Tumors were allowed to grow to 200±50 mm^3, at which time the animals were sorted into treatment groups of 8 animals per group based on weight (±1 g body weight) and tattooed on the tail for permanent identification. Tumor volumes and body weights were determined twice weekly. The tumor volume was determined by measuring in two directions with vernier calipers and calculated using the formula: Tumor volume=(length×width^2)/2. The data were plotted as the % change in mean values of tumor volume and body weight for each group. The tumor growth inhibition (% TGI) was determined as % TGI=[…]: where Wt is the median tumor volume of the treated group at time x and Wc is the median tumor volume of the control group at time x. TARCEVA® was dosed in a 6% Captisol (CyDex, Inc) in WFI (Water for Injection) solution and all control animals were dosed with an equal volume of the vehicle. […]

H292 NSCLC xenograft = test: Xenograft tumor growth inhibition; type: in vivo, CD-1 nu/nu mice; settings: H292 xenograft in mice; 100 mg/kg once a day for 14 days, oral gavage
Method: as §6, §7

[7] = test system: ERK MAP kinase and AKT pathways in Calu1 cells; test: Intracellular signaling, immunoblot of pERK and pAKT; type: cell-based, human; settings: presence or absence of exogenously added ligand
Method: as §4
Protein immunodetection was performed by electrophoretic transfer of SDS-PAGE separated proteins to nitrocellulose, incubation with antibody and chemiluminescent detection (PicoWest; Pierce, Rockford, Ill.). […]

[8] = 0.5% FCS and PDGF (mixed AA, AB and BB forms) added
[9] = for 2 hours, basal and FGF (10 ng/ml, 15 min) stimulated
[10] = increasing concentrations, 72 hours

O=C(Nc1ccc(OC(F)(F)F)cc1)c1sccc1NCc1ccnc2ccccc12 [OSI-930]
Phosphorylation of ERK MAP kinase and AKT (serine 473) ([1]; inhibitor 2 hours, basal (10% FCS) and ligand stimulated (PDGF 10 ng/ml, 15 mins)): reduced phosphorylation of ERK MAP kinase and AKT (on serine 473) | Inhibition of cell growth (proliferation) (H358 cells; [8]): failed to show any enhanced growth inhibition | Inhibition of cell growth (proliferation) (H358 cells; 10% FCS, 72 hours): only observed in H1703 cells | Inhibition of cell growth (proliferation) (H1703 cells [2]; [8]): inhibited more potently | Inhibition of cell growth (proliferation) (H1703 cells [2]; 10% FCS, 72 hours): Inhibition of cell growth | Cell motility (closure of the wound) (Calu1 cells [3]): inhibition of cell motility | Cell motility (closure of the wound) (H1703 cells [4]): inhibition of cell motility | Inhibition of ERK and AKT pathways ([5]; basal and PDGF ligand stimulated): only showed ligand induced inhibition of ERK and AKT pathways | Inhibition of cell growth (proliferation) (H226 cells; [8]): failed to show any enhanced growth inhibition | Inhibition of cell growth (proliferation) (H226 cells; 10% FCS, 72 hours): not growth inhibited | Inhibition of cell growth (proliferation) (Calu1 cells [6]; [8]): failed to show any enhanced growth inhibition | Inhibition of cell growth (proliferation) (Calu1 cells [6]; 10% FCS, 72 hours): not growth inhibited

C#Cc1cccc(Nc2ncnc3cc(OCCOC)c(OCCOC)cc23)c1 [Erlotinib, [6,7-bis(2-methoxyethoxy)-4-quinazolin-4-yl]-(3-ethynylphenyl) amine]
Erlotinib Senistivity (H441 NSCLC cell line): Sensitive | Erlotinib Senistivity (CALU6 NSCLC cell line): Insensitive | Erlotinib Senistivity (H322 NSCLC cell line): Sensitive | Erlotinib Senistivity (H23 NSCLC cell line): Insensitive | Erlotinib Senistivity (H23 NSCLC cell line; listed as erlotinib): insensitive | Erlotinib Senistivity (A549 NSCLC cell line): Intermediate | Erlotinib Senistivity (H1299 NSCLC cell line): Insensitive | Erlotinib Senistivity (H522 NSCLC cell line): Insensitive | Erlotinib Senistivity (H1437 NSCLC cell line): Insensitive | Erlotinib Senistivity (H1703 NSCLC cell line): Insensitive | Erlotinib Senistivity (H1703 NSCLC cell line; listed as erlotinib): insensitive | Erlotinib Senistivity (H358 NSCLC cell line): Sensitive | Erlotinib Senistivity (H292 NSCLC cell line): Sensitive | Erlotinib Senistivity (HOP92 NSCLC cell line): Insensitive | Erlotinib Senistivity (HOP92 NSCLC cell line; listed as erlotinib): insensitive | Erlotinib Senistivity (CALU1 NSCLC cell line): Insensitive | Erlotinib Senistivity (H460 NSCLC cell line): Insensitive | Erlotinib Senistivity (H226 NSCLC cell line): Insensitive | Erlotinib Senistivity (H1155 NSCLC cell line): Insensitive | Erlotinib Senistivity (H650 NSCLC cell line): Insensitive | Erlotinib Senistivity (SW1573 NSCLC cell line): Insensitive | Xenograft growth, tumor volume (Calu6 NSCLC xenograft): insensitive to EGFR inhibition | Xenograft growth, tumor volume (H292 NSCLC xenograft): sensitive to EGFR inhibition and shows a reduction in tumor volume during the dosing period

CCN(CC)CCCCNc1ncc2cc(-c3cc(OC)cc(OC)c3)c(NC(=O)NC(C)(C)C)nc2n1 [PD173074]
Signaling (ERK, AKT) [7]: unaffected | Activation of the ERK MAP kinase pathway [1, 9]: inhibited | AKT pathway inhibition ([1]; for 2 hours, basal and FGF stimulated): only inhibited after ligand stimulation | Growth inhibition (proliferation) (H1703 cells [2]; [10]): growth inhibited | Activation of the ERK MAP kinase pathway [5, 9]: inhibited | Growth inhibition (proliferation) (H226 cells; [10]): growth inhibited | Growth inhibition (proliferation) (Calu1 cells [6]; [10]): little effect
